Assay results as given in PMC8381248 (Frontiers in Pharmacology, 2021).
Values after ≈ are worked out from the molar mass of the structure shown.

Legend:
[1] = Metabolic stability in human liver microsomes; conditions: for T1/2: 0.5 mg/ml microsomal protein, n = 2
Experimental: Then, this incubation plate containing mixed solution and NADPH regeneration system was agitated on a plate shaker at 100 rpm and pre-incubated at 37°C for 5 min. Subsequently, 300 μL of precooled quenching solution was added to each well of another deep-well plate (quench plate), which was cooled on ice. The solution in the incubation plate was transferred into the well of the quench plate as the samples in 0 min before it was mixed with another 20 µL of NADPH regeneration solution in the wells.
The incubation plate was incubated at 37°C for 0, 10, 30, and 90 min. At each time point, 100 μL of the supernatant in the incubation plate was removed from each well, quenched immediately, transferred to the wells of the ice-cold quench plate, and vortexed for 5 min. Additionally, an equal volume of pre-warmed fresh regeneration solution was added to the incubation plate for compensation after every withdrawal. […] Each test was operated in duplicate. The determination conditions of LC-MS/MS are shown in Support Materials (Supplementary Table S4).
The in vitro T1/2 was determined by converting the analyte/IS peak area ratios to percentage of drug remaining using the initial peak (t = 0 min) area ratio values as 100%.

[2] = in vitro; conditions: PAMPA
Experimental: Verapamil and digoxin solutions, used as reference, prepared in the same manner as the test drugs. Tolbutamide dissolved with acetonitrile (200 ng/ml) was used as IS.
The resultant supernatants were determined by LC-MS/MS. The specific assay conditions are shown in Support Materials (Supplementary Table S2).

[3] = Kinetic solubility test in PBS; format: physicochemical; conditions: phosphate-buffer saline (PBS), aqueous buffer, kinetic from dmso stock; PBS (100 mM, pH 7.4)
Experimental: Internal standard (IS) solutions (propranolol and tolbutamide) were dissolved by acetonitrile (50 ng/ml propranolol + 200 ng/ml tolbutamide).
The sample solutions were analyzed using LC-MS/MS. All the samples (test samples and references) for detection were prepared in duplicate. The conditions for LC-MS/MS are shown in Support Materials (Supplementary Table S1).

[4] = system: PE-constricted aortic rings; test: Vasorelaxant effects on isolated PE-constricted aortic rings; design: species or system SD rats; conditions: 10^–6 M PE, n = 6
Experimental: SD rats were anesthetized by exposure to ether, and the thoracic aorta was removed and immersed in Krebs-Henseleit (K-H) buffer ([Lee et al., 2013]) at 4°C. The connective tissues and fats around the aorta were carefully removed under the microscopes, and the blood was flushed. The aorta ring was cut into four sections approximately 3 mm long and suspended in organ chambers containing K-H buffer. The endothelium was also removed by gently rubbing the lumen of the vessel with a cotton swab. The aortic rings were placed in a 5 ml organ chambers of DMT multiwire myograph system (620M, Danish Myo Technology, Denmark) and were filled with K-H buffer aerated with 95% O2 and 5% CO2 at 37°C. The aortic rings were mounted on hooks connected to a tension transducer and a displacement device.
The initial vessel tension was slowly adjusted to 15 mN and maintained balanced for 60 min. The buffer was renewed once every 15 min. After equilibration, the vessel viability was pre-constricted by exposing the aortic rings to 60 mM KCl for 10 min ([Ding et al., 2019]). Then, the K-H buffer was continuously renewed to elute and restore the initial tension of the vascular ring to assay the vascular activity. The pre-treated operation was repeated two times, where the constriction amplitude after each KCl stimulation to reach the previous constriction amplitude was taken as the criterion, before the experiment continued. Subsequently, 10^–6 M PE was added to contract the blood vessel. After the constriction was stable, different concentrations of Ach (10^−9–10^–5 M) were used to dilate the vessels. Then, the vasorelaxation degree could be calculated with different Ach concentrations, as the following equation: Vasorelaxation degree (%)=Maxium constriction tension induced by PE−Minium diastolic tension induced by Ach/Maxium constriction tension induced by PE−Resting tension×100% (10) When the vasorelaxation degree corresponding to Ach (10^–5 M) is greater than 80%, the vascular endothelium is considered intact and functional. The endothelium is considered to be removed with a vasorelaxation degree of less than 20% ([Lee et al., 2013]). Endothelium-intact and endothelium-denuded aortic rings from the same aorta were tested.
After equilibration, the endothelium-intact and the endothelium-denuded aortic rings were pre-constricted with 10^–6 M PE in the K-H buffer system.
After equilibration, the endothelium-intact aortic rings were pre-constricted with 10^–6 M PE in the K-H buffer system. […] Then, the corresponding vasoconstrictive responses were examined and recorded.
In the vasorelaxant effects investigations, all the data are presented as mean ± SEM. Statistical analysis was performed using two-way ANOVA followed by Fisher’s least significant difference (LSD) test. Values at p < 0.05 were considered statistically significant.

COc1ccc2c(c1)[C@]13CCCC[C@@H]1[C@H](C2)N(C)CC3 [Dextromethorphan, dextromethorphan, reference compound]
T1/2 ([1]; HLM with NADPH): 63.8 min
microsomal CLint ([1]; human, microsomes): 21.7 µL/min/mg

C[C@H]1O[C@@H](O[C@H]2[C@@H](O)C[C@H](O[C@H]3[C@@H](O)C[C@H](O[C@H]4CC[C@@]5(C)[C@H](CC[C@@H]6[C@@H]5C[C@@H](O)[C@]5(C)[C@@H](C7=CC(=O)OC7)CC[C@]65O)C4)O[C@@H]3C)O[C@@H]2C)C[C@H](O)[C@@H]1O [Digoxin, digoxin, reference compound]
Papp at 18000 s [2]: 0.589 ×10⁻⁶ cm/s

COc1ccc2[nH]c([S+]([O-])Cc3ncc(C)c(OC)c3C)nc2c1 (stereo not drawn) [Omeprazole, omeprazole, reference compound]
T1/2 ([1]; RLM with NADPH): 15.6 min

CC(=O)N1CCN(c2ccc(OCC3COC(Cn4ccnc4)(c4ccc(Cl)cc4Cl)O3)cc2)CC1 (stereo not drawn) [ketoconazole, reference compound]
solubility kinetic [3]: 38.9 ± 1.54 µg/mL (≈ 73.2 µM)

COC(=O)C1=C(C)NC(C)=C(C(=O)OCCN(C)Cc2ccccc2)C1c1cccc([N+](=O)[O-])c1 (stereo not drawn) [nicardipine, reference compound]
solubility kinetic [3]: 9.94 ± 0.05 µg/mL (≈ 20.7 µM)

Pinoresinol [PINL]
vasorelaxant effect on PE-constricted aortic rings ([4]; increasing concentration 25–200 μM): concentration-dependent vasorelaxation
vasorelaxation degree, endothelium-denuded versus endothelium-intact group ([4]; PINL difference at 50–100 μM): significantly lower
vasorelaxant response compared between groups ([4]; endothelium-intact rings, PINL vs PDG at 50 μM, combination vs single at 25, 50 and 100 μM): significantly better than in the PDG group
